Measurements taken from US12233103B2, “Indoleamine 2,3-dioxygenase based immunotherapy” (IO BIOTECH APS, priority 2008, dated 2025).

How the values were obtained:
HLA-A2 [1] = molecular target: T1, HLA-A2 (Homo sapiens, UniProt P04439, D140Y/D185E/D98H/E176V/E277Q/G131W/G231S/I119V/I121R/I166T/I218V/L300P/L318F/N151K/N90K/P208A/P217A/Q86G/Q94H/R138H/R169H/T345S); assay: Assembly assay for peptide binding to MHC class I molecules; conditions: recovery of HLA-A2 at 100, 10, 1 and 0.1 μM peptide
T1 construct: empty HLA-molecules released upon cell lysis, from the TAP-deficient cell line T2; endogenous in cells; host or cells: T2 (TAP-deficient human cell line), cell lysate
Procedure: The binding affinity of the synthetic peptides (Genscript) to HLA-A2 molecules, metabolically labelled with [35^S]-methionine, was measured in the assembly assay, as described previously^33. The assay is based on peptide-mediated stabilization of empty HLA-molecules released upon cell lysis, from the TAP-deficient cell line T2. Stably folded HLA-molecules were immune-precipitated by using the HLA class-I specific, conformation dependent monoclonal (mAb) W6/32 and separated by isoelectric focusing (IEF) gel electrophoresis. Major histocompatibility complex (MHC) heavy-chain bands were quantified using the ImageGauge Phosphoimager program (FUJI Photo Film, Carrolton, TX). The intensity of the band is directly related to the amount of peptide-bound class I MHC complex recovering during the assay. The recovery of HLA-A2 was measured in presence of 100, 10, 1, and 0.1 μM of the relevant peptide. The C50 value was calculated for each peptide as the peptide concentration sufficient for half maximal stabilization.

[2] = tested on: PBL from HLA-A2 positive cancer patients (breast cancer, melanoma, renal cell carcinoma); assay: IFN-γ ELISPOT after one in vitro peptide stimulation, cancer patients; format: cell-based, human; conditions: HLA-A2 positive late stage cancer patients; PBL stimulated once with peptide in vitro
Procedure: (§1) To extend the sensitivity of the enzyme-linked immunospot (ELISPOT) assay, PBL were stimulated once in vitro with peptide prior to analysis^34. At day 0, PBL were thawed and plated in 2 ml/well at a concentration of 2×10^6 cells in 24-well plates (Nunc) in X-vivo medium (BioWhittaker) with 5% heat-inactivated human serum in the presence of 10 μM peptide (GenScript). One day later 40 IU/ml recombinant interleukin-2 (IL-2) (PeproTech) was added to the cultures. The cultured cells were tested in the IFN-γ ELISPOT assay on day 8.
(§2) The ELISPOT assay was used to quantify peptide epitope-specific INF-γ releasing effector cells as described previously^17. In some experiments PBMC were stimulated once in vitro with peptide prior to analysis as described^(34) to extend the sensitivity of the assay. Briefly, nitrocellulose bottomed 96-well plates (MultiScreen MAIP N45; Millipore) were coated with anti-IFN-γ Ab (1-D1K; Mabtech). The wells were washed, blocked by X-vivo medium and the effector cells were added in duplicates at different cell concentrations, with or without 10 μM peptide. The plates were incubated overnight. The following day, medium was discarded and the wells were washed prior to addition of biotinylated secondary Ab (7-B6-1-Biotin; Mabtech). The plates were incubated at room temperature (RD for 2 h, washed, and Avidin-enzyme conjugate (AP-Avidin; Calbiochem/Invitrogen Life Technologies) was added to each well. Plates were incubated at RT for 1 h and the enzyme substrate NBT/BCIP (Invitrogen Life Technologies) was added to each well and incubated at RT for 5-10 min. Upon the emergence of dark purple spots, the reaction was terminated by washing with tap water. The spots were counted using the ImmunoSpot Series 2.0 Analyzer (CTL Analyzers) and the peptide-specific CTL frequency could be calculated from the numbers of spot-forming cells.
(§3) Eleven IDO-derived peptides were selected using algorithms based on the main HLA-A2 specific anchor residues and subsequently synthesized^16. […]

[3] = tested on: PBL from healthy individuals; assay: IFN-γ ELISPOT after one in vitro peptide stimulation, healthy individuals; format: cell-based, human
Procedure: as §1, §2, §3

CD8+ T cells in PBL = assay: HLA-A2/IDO5 tetramer flow cytometry of PBL; format: cell-based, human; conditions: for average frequency of IDO reactive cells of total CD8+ T cells: after in vitro stimulation
Description: (§4) For tetramer stainings, PBL from cancer patients and healthy donors as well as TIL from cancer patients were stimulated once in vitro with peptide, or analysed directly ex vivo. The CD8 cells were isolated from PBL using the Dynal CD8 negative isolation kit (Dynal Biotech) at day 7. The resulting T cell cultures were stained with PE coupled tetramer, followed by antibody staining with the flourochrome-coupled mAbs: CD8-allophycocyanin/APC-Cy7, CD3-FITC, […], CD45RO-FITC, CD45RA-PE-Cy5 and CD28-allophycocyanin (BD Immunocytometry Systems). Tetramer stainings were performed in PBS+2% FCS, for 15 min, RT, in the dark, whereas antibody stainings were performed in PBS+2% FCS, 4° C., in the dark. The MHC tetramer complexes used were: HLA-A2/IDO5 (ALLEIASCL (SEQ ID NO: 20)) and HLA-A2/HIV-1 pol476-484 ([…] (SEQ ID NO: 18)). The samples were analyzed on BD FACS aria, using DIVA software (BD Biosciences).

[4] = tested on: TIL cultures from HLA-A2+ melanoma and head and neck cancer patients; assay: HLA-A2/IDO5 tetramer staining of IL-2 treated TIL cultures; format: cell-based, human; conditions: tetramer stainings
Description: as §4

IDO = assay: Intracellular IDO staining by flow cytometry; format: cell-based, human
Description: Cancer cell lines and DC were examined for expression of IDO using flow cytometry. After fixation and permeabilization (Cytofix/Cytoperm, BD), cells were stained with mouse anti-IDO antibody (Millipore Corporation) followed by FITC-labeled anti-mouse secondary antibody (DAKO). For all experiments, a negative control only stained with the FITC-coupled secondary antibody was included, to determine the background fluorescence from falsely attached secondary antibodyE and auto-fluorescence. The IDO expression was determined using the staining index defined as MFIpositive−MFIbackground/2×SDbackground where MFI is mean fluorescence intensity. Cells were defined IDO positive if the staining index>1^21.

HLA-A2 [5] = assay: HLA-A2 expression by flow cytometry; format: cell-based, human; conditions: CAMA-1+IFN-γ treatment (untreated 43.7)
Procedure: Cancer cells were examined for HLA-A2 expression using flow cytometry. Cells were stained with a fluorochrome-coupled HLA-A2 mAb (BD Bioscience). For comparison, cells were stained with an isotype matched control. The samples were analyzed on BD FACS aria, using DIVA software (BD Biosciences). Assuming normality, HLA-A2 expression was given by a one-tailed two sampled T-test comparing MFIHLA-A2 and MFIIsotype control, where MFI is the Mean Fluorescence 9 Intensity. For p-values<0.05 (significance level) cells were defined HLA-A2+. The fold of expression was defined as MFIHLA-A2/MFIIsotype control.

ALLEIASCL (listed as Homo sapiens) [IDO5]
binding affinity to HLA-A2 compared with the high affinity positive control epitope HIV-1 pol476-484 (HLA-A2 [1]): bound HLA-A2 even better than the high-affinity control epitope | ELISPOT responses in PBL of cancer patients [2]: ELISPOT responses were detected | spontaneous ELISPOT responses in healthy controls [3]: No spontaneous responses could be detected | average frequency of IDO reactive cells of total CD8+ T cells (CD8+ T cells in PBL; 7 HLA-A2 positive healthy donors): 0.001% | average frequency of IDO reactive cells of total CD8+ T cells (CD8+ T cells in PBL; 11 HLA-A2 positive cancer patients): 0.03% | detection of IDO-reactive T cells in healthy donors (CD8+ T cells in PBL; tetramer staining, healthy donors): No IDO-reactive T cells could be detected | analyzed patients with detectable IDO5-specific T cells among TIL [4]: 4 of the 5

FLVSLLVEI (listed as Homo sapiens) [IDO2]
ELISPOT responses in PBL of cancer patients [2]: ELISPOT responses were detected | spontaneous ELISPOT responses in healthy controls [3]: No spontaneous responses could be detected

IFN-γ: cytokine used to treat cancer cells, 100 U/ml for 2 days
IDO staining index (IDO; CAMA-1+IFN-γ (untreated CAMA-1 1.3), IDO positive if index>1): 1.8 | MFIIDO/MFIIsotype control (IDO; CAMA-1+IFN-γ treatment (untreated 2.3)): 3.5 | expression of IDO in CAMA-1 and MDA-MB-231 after treatment (IDO; both cell lines): increased the expression of IDO | HLA-A2 expression, fold over isotype control (HLA-A2 [5]): 141.2

VLSKGDGL (VLSKGDAGL; listed as Homo sapiens) [IDO6]
ELISPOT responses in PBL of cancer patients [2]: ELISPOT responses were detected | spontaneous ELISPOT responses in healthy controls [3]: No spontaneous responses could be detected
